Test results taken from PubChem BioAssay AID248 (DTP/NCI, 2004).
Toxic doses and inconclusive results are not listed. Cut-off read from the data, not from the text of the source: active = T/C of 150% or more; inactive = T/C below 125%.

System: L1210 leukemia ip in BDF1 mice, survival T/C
Experiment: NCI In Vivo Anticancer Drug Screen. Data for tumor model L1210 Leukemia (intraperitoneal) in B6D2F1 (BDF1) mice
Settings: endpoint: mean survival time, higher = longer survival
In short: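 Antitumor effect is assessed in tumor-bearing animals. Survival in the compound arm is compared with a vehicle-dosed control arm and expressed as their quotient.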

[1] = dose: 100.0 mg/kg/injection, schedule: Q04DX003 (ip), vehicle: saline with Tween-80
[2] = dose: 200.0 mg/kg/injection, schedule: Q04DX003 (ip), vehicle: saline with Tween-80
[3] = dose: 400.0 mg/kg/injection, schedule: Q04DX003 (ip), vehicle: saline with Tween-80
[4] = dose: 100.0 mg/kg/injection, schedule: Q01DX009 (ip), vehicle: saline with Tween-80
[5] = dose: 200.0 mg/kg/injection, schedule: Q01DX009 (ip), vehicle: saline with Tween-80
[6] = dose: 100.0 mg/kg/injection, schedule: Q01DX009 (ip), vehicle: Klucel (hydroxypropylcellulose) (HPC)
[7] = dose: 100.0 mg/kg/injection, schedule: Q04DX003 (ip), vehicle: Klucel (hydroxypropylcellulose) (HPC)
[8] = dose: 200.0 mg/kg/injection, schedule: Q01DX009 (ip), vehicle: Klucel (hydroxypropylcellulose) (HPC)
[9] = dose: 200.0 mg/kg/injection, schedule: Q04DX003 (ip), vehicle: Klucel (hydroxypropylcellulose) (HPC)
[10] = dose: 400.0 mg/kg/injection, schedule: Q01DX009 (ip), vehicle: Klucel (hydroxypropylcellulose) (HPC)
[11] = dose: 400.0 mg/kg/injection, schedule: Q04DX003 (ip), vehicle: Klucel (hydroxypropylcellulose) (HPC)

Measured: T/C

Cc1n(Cc2ccccc2)c2c([n+]1C)C(=O)c1ccccc1C2=O
inactive: dose: 0.5 mg/kg/injection, schedule: Q01DX001 (ip), vehicle: saline 102 % of control | dose: 1.0 mg/kg/injection, schedule: Q01DX001 (ip), vehicle: saline 102 % of control | dose: 1.0 mg/kg/injection, schedule: Q04DX003 (ip), vehicle: Klucel (hydroxypropylcellulose) (HPC) 100 % of control | dose: 2.0 mg/kg/injection, schedule: Q01DX001 (ip), vehicle: saline 106 % of control | dose: 2.0 mg/kg/injection, schedule: Q04DX003 (ip), vehicle: Klucel (hydroxypropylcellulose) (HPC) 91 % of control | dose: 4.0 mg/kg/injection, schedule: Q01DX001 (ip), vehicle: saline 108 % of control | dose: 4.0 mg/kg/injection, schedule: Q04DX003 (ip), vehicle: Klucel (hydroxypropylcellulose) (HPC) 96 % of control | dose: 125.0 micrograms/kg/injection, schedule: Q01DX009 (ip), vehicle: Klucel (hydroxypropylcellulose) (HPC) 97 % of control | dose: 250.0 micrograms/kg/injection, schedule: Q01DX009 (ip), vehicle: Klucel (hydroxypropylcellulose) (HPC) 97 % of control | dose: 500.0 micrograms/kg/injection, schedule: Q01DX009 (ip), vehicle: Klucel (hydroxypropylcellulose) (HPC) 90 % of control | dose: 1000.0 micrograms/kg/injection, schedule: Q01DX009 (ip), vehicle: Klucel (hydroxypropylcellulose) (HPC) 101 % of control | dose: 2000.0 micrograms/kg/injection, schedule: Q01DX009 (ip), vehicle: Klucel (hydroxypropylcellulose) (HPC) 95 % of control

CCOC(=O)NCC(CCCN1CCOCC1)(c1cccc2ccccc12)C(C)CC (configuration not stated)
inactive: dose: 100.0 mg/kg/injection, schedule: Q04DX002 (ip), vehicle: saline 102 % of control | dose: 200.0 mg/kg/injection, schedule: Q04DX002 (ip), vehicle: saline 106 % of control | dose: 400.0 mg/kg/injection, schedule: Q04DX002 (ip), vehicle: saline 97 % of control

C=C(C)Cn1cnc2c1c(=O)n(C)c(=O)n2C
inactive: dose: 100.0 mg/kg/injection, schedule: Q04DX003 (ip), vehicle: saline 103 % of control | dose: 200.0 mg/kg/injection, schedule: Q04DX003 (ip), vehicle: saline 98 % of control | dose: 400.0 mg/kg/injection, schedule: Q04DX003 (ip), vehicle: saline 89 % of control

CCC(O)(c1ccccc1)c1ccccc1
inactive: [1] 103 % of control | [2] 99 % of control | [3] 98 % of control

Nc1nc2nc3c(nc2c(=O)[nH]1)CN(C1CCCCC1)C3=O
inactive: dose: 75.0 mg/kg/injection, schedule: Q01DX001 (ip), vehicle: carboxymethylcellulose (CMC) 96 % of control | dose: 150.0 mg/kg/injection, schedule: Q01DX001 (ip), vehicle: carboxymethylcellulose (CMC) 94 % of control

CSc1ccc(NC(=O)Nc2cc(C)ccc2N=Nc2ccc(C)cc2)cc1
inactive: dose: 100.0 mg/kg/injection, schedule: Q01DX009 (ip), vehicle: other 89 % of control | dose: 200.0 mg/kg/injection, schedule: Q01DX009 (ip), vehicle: other 102 % of control | dose: 400.0 mg/kg/injection, schedule: Q01DX009 (ip), vehicle: other 96 % of control

O=C1c2ccccc2C(=O)C2C1C(c1ccccc1)N(c1ccccc1)C2c1ccccc1 (configuration not stated)
inactive: dose: 50.0 mg/kg/injection, schedule: Q01DX001 (ip), vehicle: saline 94 % of control | dose: 100.0 mg/kg/injection, schedule: Q01DX001 (ip), vehicle: saline 105 % of control | dose: 200.0 mg/kg/injection, schedule: Q01DX001 (ip), vehicle: saline 94 % of control | dose: 400.0 mg/kg/injection, schedule: Q01DX001 (ip), vehicle: saline 103 % of control

CC(C)=C(C=O)CCC(C)C
inactive: [4] 93 % of control | [1] 95 % of control | [5] 88 % of control | [2] 93 % of control | [3] 97 % of control

CC(=O)NC1(C#N)c2ccccc2-c2ccccc21
inactive: dose: 50.0 mg/kg/injection, schedule: Q01DX001 (ip), vehicle: carboxymethylcellulose (CMC) 104 % of control | dose: 100.0 mg/kg/injection, schedule: Q01DX001 (ip), vehicle: carboxymethylcellulose (CMC) 104 % of control | dose: 200.0 mg/kg/injection, schedule: Q01DX001 (ip), vehicle: carboxymethylcellulose (CMC) 102 % of control | dose: 400.0 mg/kg/injection, schedule: Q01DX001 (ip), vehicle: carboxymethylcellulose (CMC) 104 % of control

CN(C)c1ccc(/C=C2\CC(C)(C)c3ccccc3C2=O)cc1
inactive: dose: 100.0 mg/kg/injection, schedule: Q04DX003 (ip), vehicle: saline sonified 103 % of control | dose: 200.0 mg/kg/injection, schedule: Q04DX003 (ip), vehicle: saline sonified 97 % of control | dose: 400.0 mg/kg/injection, schedule: Q04DX003 (ip), vehicle: saline sonified 103 % of control

COc1cc(Br)c(CC(=O)O)cc1OC
inactive: dose: 100.0 mg/kg/injection, schedule: Q04DX003 (ip), vehicle: acetone 96 % of control | dose: 200.0 mg/kg/injection, schedule: Q04DX003 (ip), vehicle: acetone 95 % of control | dose: 400.0 mg/kg/injection, schedule: Q04DX003 (ip), vehicle: acetone 93 % of control

COc1ccc2c(c1)CN(S(=O)(=O)c1ccc(C)cc1)C=CC2=O
inactive: [6] 96 % of control | [7] 90 % of control | [8] 104 % of control | [9] 96 % of control | [10] 96 % of control | [11] 98 % of control

COc1c(C)cc(Br)c2c1C(CCN(C)S(=O)(=O)Cc1ccccc1)CCC2 (configuration not stated)
inactive: [6] 95 % of control | [7] 96 % of control | [8] 89 % of control | [9] 98 % of control | [10] 93 % of control | [11] 91 % of control

O=C(NCc1ccccc1)c1ccccc1/C(=N/O)c1ccccc1
inactive: [5] 86 % of control

COC(=O)C1=C[N+](C)(C)N=C1[O-]
inactive: dose: 100.0 mg/kg/injection, schedule: Q01DX009 (ip), vehicle: saline 97 % of control | dose: 200.0 mg/kg/injection, schedule: Q01DX009 (ip), vehicle: saline 94 % of control | dose: 400.0 mg/kg/injection, schedule: Q01DX009 (ip), vehicle: saline 93 % of control

OCC1OCCO1
inactive: [4] 96 % of control | [1] 110 % of control | [5] 93 % of control | [2] 102 % of control | dose: 400.0 mg/kg/injection, schedule: Q01DX009 (ip), vehicle: saline with Tween-80 96 % of control | [3] 100 % of control
